Measured values published in patent US20250177396A1, “POLO-LIKE KINASE 4 (PLK4) INHIBITORS, PHARMACEUTICAL COMPOSITIONS, METHODS OF PREPARATION AND USES THEREOF” (Repare Therapeutics Inc., priority 2022, published 2025).
pIC50: −log10 of the molar value.

biological target: T1, PLK4 (Homo sapiens, UniProt O00444); assay: PLK4 NanoBRET target engagement assay; type: binding; details: HEK293 T cells transfected with PLK4 NanoLuc fusion vector; K-5 tracer; 2 hrs incubation
T1 construct: expressed in transfected cells; host or cells: HEK293 T cells (ATCC CRL-3216)
T1 sequence (O00444 1-970): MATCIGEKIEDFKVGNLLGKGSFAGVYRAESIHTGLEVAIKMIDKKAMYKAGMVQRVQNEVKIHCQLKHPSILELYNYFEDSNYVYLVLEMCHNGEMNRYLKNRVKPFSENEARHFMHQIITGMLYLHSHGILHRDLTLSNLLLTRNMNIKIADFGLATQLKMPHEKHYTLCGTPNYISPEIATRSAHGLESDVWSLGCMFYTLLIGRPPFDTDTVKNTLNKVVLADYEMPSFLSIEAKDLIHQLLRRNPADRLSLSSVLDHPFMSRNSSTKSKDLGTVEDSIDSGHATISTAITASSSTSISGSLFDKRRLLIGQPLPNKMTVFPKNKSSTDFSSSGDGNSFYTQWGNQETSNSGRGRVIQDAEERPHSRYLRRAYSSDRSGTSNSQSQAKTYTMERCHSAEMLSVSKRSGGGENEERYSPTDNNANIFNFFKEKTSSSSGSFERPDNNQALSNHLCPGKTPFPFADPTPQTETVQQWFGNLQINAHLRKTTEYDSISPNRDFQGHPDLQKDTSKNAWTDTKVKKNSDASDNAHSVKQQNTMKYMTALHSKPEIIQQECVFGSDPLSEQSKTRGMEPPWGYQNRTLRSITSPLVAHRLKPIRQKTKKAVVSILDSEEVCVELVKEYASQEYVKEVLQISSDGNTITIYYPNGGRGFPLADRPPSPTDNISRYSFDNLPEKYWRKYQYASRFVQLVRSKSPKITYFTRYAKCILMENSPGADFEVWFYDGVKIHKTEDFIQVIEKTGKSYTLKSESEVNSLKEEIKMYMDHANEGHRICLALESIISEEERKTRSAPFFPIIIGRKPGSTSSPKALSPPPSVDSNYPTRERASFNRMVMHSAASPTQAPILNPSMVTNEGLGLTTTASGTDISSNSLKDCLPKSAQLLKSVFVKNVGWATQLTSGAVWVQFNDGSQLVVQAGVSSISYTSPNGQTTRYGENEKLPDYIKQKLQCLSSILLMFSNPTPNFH
Protocol: To determine the affinity of Compounds described herein in the PLK4 NanoBRET target engagement assay, HEK293 T cells (ATCC Product Number CRL-3216) are first transfected with the PLK4 NanoLuc fusion vector DNA and Transfection carrier DNA using the Fugene HD Transfection reagent in Opti-MEM No Phenol Red buffer. After an overnight incubation in a 37° C./5% CO2 incubator, the transfected HEK293 T cells are trypsinized, counted, and resuspended in Opti-MEM No Phenol Red buffer at a concentration of 200000 cells/mL. White 96-well plates are then plated with 85 μL of cells (17000 cells/well) to which 5 μL of the 20×K-5 tracer solution diluted in tracer dilution buffer is added. Finally, 10 μL of the 10× compounds are added and the plates and then incubated in a 37° C./5% CO2 incubator for 2 hrs. After the incubation, a 50 uL 3× solution of the substrate/inhibitor mix is added to the cells. The plate is then transferred in the Envision plate reader where the Acceptor emission (610 nm) and the Donor emission (450 nm) are measured.
The IC50 of compounds is determined as follows: • 1. The ratio between the Acceptor emission (610 nm)/Donor emission (450 nm) is calculated. • 2. This ratio is then multiplied by 1000 to obtain the mBRET units (multiplying by 1000 is an arbitrary step that simply makes the data easier to interpret; it has no impact on the data set itself) • 3. The mBRET units are then used in Scigilian Analyze software (https://analyze.scigilian.io) to determine the IC50 value using a 4-parameter fit analysis.

| Compound | pIC50 |
| --- | --- |
| Cc1csc(-c2nc(N(C)c3ccc(S(C)(=O)=O)cc3F)nc(Nc3cc(C)[nH]n3)c2C2CC2)n1 [Compound 45] | 6.85 |
| CN(c1nc(Nc2n[nH]c3c2CCC3)c(C2CC2)c(-c2cnn(C)c2)n1)c1c(F)cc(S(C)(=O)=O)cc1F [Compound 285] | 6.82 |
| Cc1cc(Nc2nc(N(C)c3c(F)cc(S(C)(=O)=O)cc3F)nc(-c3cnn(C)c3C(=O)O)c2C2CC2)n[nH]1 [Compound 289] | 6.18 |
| Cc1cc(Nc2nc(N(C)c3c(F)cc(S(C)(=O)=O)cc3F)nc(N3CCC[C@@H]3C#N)c2C2CC2)n[nH]1 [Compound 332] | 7.48 |
| CN(c1nc(Nc2cc(C(F)(F)F)[nH]n2)c(C2CC2)c(-c2cnn(C)c2)n1)c1c(F)cc(S(C)(=O)=O)cc1F [Compound 278] | 7.22 |
| Cc1cc(Nc2nc(N(C)c3c(F)cc(N4CCOC4=O)cc3F)nc(-c3cn(C)cn3)c2C2CC2)n[nH]1 [Compound 353] | 8.22 |
| Cc1cc(Nc2nc(N(C)c3c(F)cc(C(C)(C)O)cc3F)nc(-c3cn(C)cn3)c2C2CC2)n[nH]1 [Compound 262] | 7.74 |
| Cc1cc(Nc2nc(N(C)c3c(F)cc(S(C)(=O)=O)cc3F)nc(-c3cn(C(C)C)cn3)c2C2CC2)n[nH]1 [Compound 137] | 8.52 |
| Cc1cc(Nc2nc(N(CCO)c3c(F)cc(S(C)(=O)=O)cc3F)nc(-c3cn(C)cn3)c2C2CC2)n[nH]1 [Compound 238] | 7.47 |
| CC(=O)N1CCn2cc(-c3nc(N(C)c4c(F)cc(S(C)(=O)=O)cc4F)nc(Nc4cc(C)[nH]n4)c3C3CC3)nc2C1 [Compound 212] | 7.28 |
| Cc1cc(Nc2nc(N(C)c3c(F)cc(S(C)(=O)=O)cc3F)nc(-c3cnc4cccnn34)c2C2CC2)n[nH]1 [Compound 267] | 8.22 |
| CN(c1nc(Nc2cc(C#N)[nH]n2)c(C2CC2)c(-c2cnn(C)c2)n1)c1c(F)cc(S(C)(=O)=O)cc1F [Compound 295] | 7.12 |
| Cc1cc(Nc2nc(N(C)c3ccc(S(C)(=O)=O)cc3C)nc(-c3cnn(C)c3)c2C2CC2)n[nH]1 [Compound 56] | 6.89 |
| Cc1cc(Nc2nc(N(C)c3c(F)cc(S(C)(=O)=O)cc3F)nc(-c3cnn4c3OCCC4)c2C2CC2)n[nH]1 [Compound 203] | 8.22 |
| Cc1cc(Nc2nc(N(C)c3ccc(S(C)(=O)=O)cc3F)nc(-n3cncn3)c2C2CC2)n[nH]1 [Compound 105] | 6.13 |
| CN(c1nc(Nc2cc(C3CC3)[nH]n2)c(C2CC2)c(-c2cn(C)cn2)n1)c1ccc(S(C)(=O)=O)cc1F [Compound 315] | 7.64 |
| COc1c(Nc2cc(C)[nH]n2)nc(N(C)c2cccc(C(=O)N(C)C)c2F)nc1-c1cnn(C)c1 [Compound 71] | 6.13 |
| COc1c(Nc2cc(C)[nH]n2)nc(N(C)c2ccc(CN3CCOC3=O)cc2)nc1-c1cnn(C)c1 [Compound 46] | 6.96 |
| Cc1cc(Nc2nc(N(C)c3c(F)cc(S(C)(=O)=O)cc3F)nc(-c3cnn(C)c3N(C)C)c2C2CC2)n[nH]1 [Compound 320] | 8.40 |
| Cc1cc(Nc2nc(N(C)c3ccc(S(C)(=O)=O)cc3F)nc(-c3cnn(C4CN(S(C)(=O)=O)C4)c3)c2C2CC2)n[nH]1 [Compound 62] | 7.55 |
| Cc1cc(Nc2nc(N(C)c3c(F)cc(S(C)(=O)=O)cc3F)nc(-c3cn[nH]c3C3CC3)c2C2CC2)n[nH]1 [Compound 316] | 8.30 |
| COc1c(Nc2cc(C)[nH]n2)nc(N(C(C)=O)c2ccc(S(C)(=O)=O)cc2F)nc1-c1cnn(C)c1 [Compound 41] | 6.17 |
| Cc1cc(Nc2nc(N(C)c3ccc(S(C)(=O)=O)cc3F)cc(-c3cnn(C)c3)c2C2CC2)n[nH]1 [Compound 93] | 7.11 |

| Compound | pIC50 |
| --- | --- |
| COc1c(Nc2cc(C)[nH]n2)nc(Nc2ccc(S(C)(=O)=O)cc2F)c(C)c1-c1cnn(C)c1 [Compound 23, N^2-(2-fluoro-4-(methylsulfonyl)phenyl)-5-methoxy-3-methyl-N^6-(5-methyl-1H-pyrazol-3-yl)-4-(1-methyl-1H-pyrazol-4-yl)pyridine-2,6-diamine] | 6.68 |
| COCCn1ncc(-c2nc(N(C)c3c(F)cc(S(C)(=O)=O)cc3F)nc(Nc3cc(C)[nH]n3)c2C2CC2)c1C [Compound 161] | 8.40 |
| COc1cc(F)c(N(C)c2nc(Nc3cc(C)[nH]n3)c(C3CC3)c(-c3cn(C)cn3)n2)c(F)c1 [Compound 338] | 7.11 |
| COc1c(Nc2cc(C)[nH]n2)nc(Sc2ccc(S(C)(=O)=O)cc2F)c(F)c1-c1cnn(C)c1 [Compound 95] | 6.77 |
| Cc1cc(Nc2nc(N(C)c3cc(F)c(S(C)(=O)=O)cc3F)nc(-c3cn4c(n3)CCOC4)c2C2CC2)n[nH]1 [Compound 210] | 8.10 |
| COCCn1cc(-c2nc(N(C)c3c(F)cc(S(C)(=O)=O)cc3F)nc(Nc3cc(C4CC4)[nH]n3)c2C2CC2)c(C)n1 [Compound 276] | 8.40 |
| Cc1cc(Nc2nc(N(C)c3c(F)cc(S(C)(=O)=O)cc3F)nc(-c3cnn(C)n3)c2C2CC2)n[nH]1 [Compound 104] | 7.82 |
| Cc1cc(Nc2nc(N(C)c3c(F)cc(S(C)(=O)=O)cc3F)nc(-c3cnn(C)c3C(N)=O)c2C2CC2)n[nH]1 [Compound 231] | 8.40 |
| COCCN(c1nc(Nc2cc(C)[nH]n2)c(OC)c(-c2cnn(C)c2)n1)c1ccc(S(C)(=O)=O)cc1F [Compound 88] | 6.54 |
| Cc1cc(Nc2nc(N(C)c3c(F)cc(S(C)(=O)=O)cc3F)nc(-c3ccn(C4CC4)n3)c2C2CC2)n[nH]1 [Compound 209] | 8.30 |
| [2H]C([2H])([2H])N(C([2H])([2H])[2H])S(=O)(=O)c1ccc(N(C)c2nc(Nc3cc(C)[nH]n3)c(C3CC3)c(-c3cnn(C)c3)n2)c(F)c1 [Compound 26] | 8.30 |
| Cc1cc(Nc2nc(N(C)c3c(F)cc(N4CCS(=O)(=O)CC4)cc3F)nc(-c3cn(C)cn3)c2C2CC2)n[nH]1 [Compound 357] | 6.52 |
| Cc1cc(Nc2nc(N(C)c3c(F)cc([N+](=O)[O-])cc3F)nc(-c3cn(C)cn3)c2C2CC2)n[nH]1 [Compound 360] | 8.00 |
| Cc1cc(Nc2nc(N(C)c3ccc(S(C)(=O)=O)cc3F)nc(-c3cnn(C)c3)c2C)n[nH]1 [Compound 42] | 7.85 |
| Cc1cc(Nc2nc(N(C)c3c(F)cc(S(C)(=O)=O)cc3F)nc(-c3cn[nH]c3C#N)c2C2CC2)n[nH]1 [Compound 317] | 7.57 |
| Cc1cc(Nc2nc(N(C)c3c(F)cc(C4(C#N)CC4)cc3F)nc(-c3cn(C)cn3)c2C2CC2)n[nH]1 [Compound 362] | 8.40 |
| Cc1cc(Nc2nc(N(C)c3c(F)cc(S(C)(=O)=O)cc3F)nc(-c3cnn([C@H]4CC[C@H](O)CC4)c3)c2C2CC2)n[nH]1 [Compound 193] | 8.52 |
| Cc1cc(Nc2nc(N(C)c3c(F)cc(S(C)(=O)=O)cc3F)nc(-c3c[nH]cn3)c2C2CC2)n[nH]1 [Compound 103] | 8.05 |
| Cc1cc(Nc2nc(N(C)c3c(F)cc(S(C)(=O)=O)cc3F)nc(-c3cnn(C)c3N)c2C2CC2)n[nH]1 [Compound 181] | 7.54 |
| COC1CCc2nc(-c3nc(N(C)c4c(F)cc(S(C)(=O)=O)cc4F)nc(Nc4cc(C)[nH]n4)c3C3CC3)cn2C1 (stereo not shown) [Compound 324] | 8.52 |
| Cc1cc(Nc2nc(N(C)c3c(F)cc(S(C)(=O)=O)cc3F)nc(-c3cnn(CC(C)(C)O)c3C)c2C2CC2)n[nH]1 [Compound 336] | 8.10 |
| COc1c(Nc2cc(C)[nH]n2)nc(N(C)c2cccc(S(C)(=O)=O)c2)nc1-c1cnn(C)c1 [Compound 78] | 5.35 |
| Cc1cc(Nc2nc(N(C)c3ccc(S(C)(=O)=O)cc3F)nc(-c3cn(C(C)C)cn3)c2C2CC2)n[nH]1 [Compound 199] | 7.77 |
